# Key:
# [1] = test system: AMPA-induced depolarization in rat cortical slices; assay: Grease-gap recording assay: AMPA-induced depolarization in rat cortical wedges; conditions: AMPA 40 uM for 2 min
# Method: Cortical wedges from rats were prepared, placed in two-compartment brain bath and experiments were performed as described by Harrison and Simmonds (British J. Pharmacol. 84, 381–391, 1985). ‘Wedges’ of rat cerebral cortex were prepared from the brains of male Wistar rats (200 g). The animal is decapitated and the brain rapidly removed into chilled oxygenated (95% O2/5% CO2) artificial cerebrospinal fluid (ACSF) containing (mM): NaCl 122, NaHCO3 25, KCl 3.1, KH2PO4 0.4, CaCl2 1.3, MgSO4 1.4, D-glucose 10, (pH 7.4). […] coronal slices were taken and they were then placed in room temperature oxygenated ACSF and hemisected with a razor blade. A wedge of tissue was formed such that the dorsal cortical surface containing cerebral cortex and corpus callosum was approximately 1.5 mm wide and ventral surface was approximately 1 mm wide. The wedges were further incubated in ACSF for 2 hrs at room temperature.
# Cortical wedges were placed in a two-compartment bath and a greased (high vacuum silicon grease) barrier placed such that a high-resistance seal was formed between the two compartments. Oxygenated ACSF was perfused through the two compartments separately at 2 ml/min for at least 1 hr. […] The DC potential between the two compartments was monitored via Ag/AgCl electrodes. The signal was amplified and analyzed with the aid of McLab software.
# [2] = test system: differentiated PC12 cells; assay: Cell viability (MTT) assay, AMPA-induced damage in differentiated PC12 cells; format: cell-based; conditions: AMPA 40 uM
# Method: (§1) MTT assay is a method to measure mitochondrial redox with calorimeter and it is primarily used to know mitochondrial redox potential or cell viability (Mosmann T., J Immunol. Methods, 1983). PC 12 cells and C6 glial cells were grown in DMEM media with 10% fetal calf serum in 5% humidified CO2 atmosphere at 37° C. PC12 cells were induced to differentiation into neuronal cells by the addition of nerve growth factor (100 ng/ml). Fresh NGF was added every 48 h and experiments were conducted after NGF treatment for 7 days.
# (§2) The cells were plated in 96 well plates at a density of 1×10^5 cells/well. Cells were preincubated with AMPA (40 μM) and followed by the addition of AR fractions (10 μg/ml) for 24 hrs. MTT reagent (Sigma, USA) (5 mg/ml) was made in PBS (phosphate buffered saline) and filtered. The cells were then treated with MTT (final concentration, 0.5 mg/ml) and allowed to incubate for 3 hrs at 37° C. Cells containing active mitochondria form dark blue formazan by disintegrating tetrazolium ring. The culture media were removed and the cells were subjected to lysis in the presence of […] of DMSO and […] of Sorensen glycine buffer (0.1M glycine, 0.1M NaCl, pH 10.5). The absorbance was measured with spectrophotometer at 570 nm. The ratio of absorbance of experimental groups to control groups is expressed as % cell viability.
# [3] = test system: C6 glial cells; assay: Cell viability (MTT) assay, AMPA-induced damage in C6 glial cells; format: cell-based
# Method: as §1, §2
smiles,measurement,setting,value
Cc1o[nH]c(=O)c1CC(N)C(=O)O (stereo not drawn) [AMPA],increase in depolarization,[1],up to 0.79 mV
same,reduction in cell viability as compared to control,[2],approximately 50%
same,reduction in cell viability as compared to control,[3],approximately 35%

# — US7078065B2, “Composition containing asiasari radix extracts for protecting brain cells and improving memory” (priority 2001, dated 2006)
